Reference: article PMC5218480 (PLoS ONE, 2017)

System: MV-4-11 cells
Experiment: Gene expression microarray analysis (Affymetrix PrimeView) and GSEA
Format: cell-based, human
Parameters: RFU PODN (11730768_x_at) / Fold change /veh PODN (11730768_x_at) / RFU LINC00158 (11744669_a_at) / Fold change /veh LINC00158 (11744669_a_at) / RFU DUSP10 (11751237_a_at) / Fold change /veh DUSP10 (11751237_a_at) / RFU ID3 (11757404_x_at) / Fold change /veh ID3 (11757404_x_at) / RFU PLEKHG5 (11737974_s_at) / Fold change /veh PLEKHG5 (11737974_s_at) / RFU LRRC4B (11730491_at) / Fold change /veh LRRC4B (11730491_at) / RFU GIMAP4 (11747438_a_at) / Fold change /veh GIMAP4 (11747438_a_at) / RFU KRT8 (11758183_x_at) / Fold change /veh KRT8 (11758183_x_at) / RFU CNN1 (11734310_a_at) / Fold change /veh CNN1 (11734310_a_at) / RFU VPS37D (11726825_at) / Fold change /veh VPS37D (11726825_at) / RFU C10orf10 (11716522_x_at) / Fold change /veh C10orf10 (11716522_x_at) / RFU KIR2DL2 /// KIR2DL4 /// KIR2DL5A /// KIR2DL5B /// KIR2DS1 /// KIR2DS2 /// KIR2DS3 /// KIR2DS4 /// KIR3DL3 /// KIR3DL3 /// KIR3DS1 (11738374_at) / Fold change /veh KIR2DL2 /// KIR2DL4 /// KIR2DL5A /// KIR2DL5B /// KIR2DS1 /// KIR2DS2 /// KIR2DS3 /// KIR2DS4 /// KIR3DL3 /// KIR3DL3 /// KIR3DS1 (11738374_at) / RFU C1QL1 (11718748_at) / Fold change /veh C1QL1 (11718748_at) / RFU TMPRSS4 (11747572_a_at) / Fold change /veh TMPRSS4 (11747572_a_at) / RFU HAMP (11756126_x_at) / Fold change /veh HAMP (11756126_x_at) / RFU RNFT2 (11725882_a_at) / Fold change /veh RNFT2 (11725882_a_at) / RFU NR4A2 (11747474_a_at) / Fold change /veh NR4A2 (11747474_a_at) / RFU ABCC12 (11746883_a_at) / Fold change /veh ABCC12 (11746883_a_at) / RFU TMEM136 (11760407_x_at) / Fold change /veh TMEM136 (11760407_x_at) / RFU CLDN22 /// WWC2 (11732394_at) / Fold change /veh CLDN22 /// WWC2 (11732394_at) / RFU HLA-DPB1 (11760878_x_at) / Fold change /veh HLA-DPB1 (11760878_x_at) / RFU SPINT1 (11716480_a_at) / Fold change /veh SPINT1 (11716480_a_at) / RFU GAP43 (11754022_s_at) / Fold change /veh GAP43 (11754022_s_at) / RFU A4GNT (11735810_at) / Fold change /veh A4GNT (11735810_at) / RFU PRB3 (11715151_x_at) / Fold change /veh PRB3 (11715151_x_at) / RFU TUBB4B (11761932_at) / Fold change /veh TUBB4B (11761932_at) / RFU CAPN14 (11732068_a_at) / Fold change /veh CAPN14 (11732068_a_at) / RFU TMCC2 (11721928_a_at) / Fold change /veh TMCC2 (11721928_a_at) / RFU IRGQ (11745062_a_at) / Fold change /veh IRGQ (11745062_a_at) / RFU FAM174B (11720279_a_at) / Fold change /veh FAM174B (11720279_a_at) / RFU TMPRSS4 (11748680_a_at) / Fold change /veh TMPRSS4 (11748680_a_at) / RFU FAM212B (11763350_a_at) / Fold change /veh FAM212B (11763350_a_at) / RFU PLEKHG5 (11743358_a_at) / Fold change /veh PLEKHG5 (11743358_a_at) / RFU ZSCAN30 (11745921_a_at) / Fold change /veh ZSCAN30 (11745921_a_at) / RFU CMKLR1 (11741424_a_at) / Fold change /veh CMKLR1 (11741424_a_at) / RFU LOC101060620 /// MAPK8IP1 (11723275_at) / Fold change /veh LOC101060620 /// MAPK8IP1 (11723275_at) / RFU SPTSSB (11747773_x_at) / Fold change /veh SPTSSB (11747773_x_at) / RFU PRSS12 (11739890_at) / Fold change /veh PRSS12 (11739890_at) / RFU BIN1 (11741810_x_at) / Fold change /veh BIN1 (11741810_x_at) / RFU WNT11 (11732464_a_at) / Fold change /veh WNT11 (11732464_a_at) / RFU C10orf10 (11716521_a_at) / Fold change /veh C10orf10 (11716521_a_at) / RFU C5orf56 (11738089_at) / Fold change /veh C5orf56 (11738089_at) / RFU CYB561 (11721691_x_at) / Fold change /veh CYB561 (11721691_x_at) / RFU ANKRD19P (11752326_a_at) / Fold change /veh ANKRD19P (11752326_a_at) / RFU OR2T12 /// OR2T33 /// OR2T8 (11738714_s_at) / Fold change /veh OR2T12 /// OR2T33 /// OR2T8 (11738714_s_at) / RFU VCAN (11748164_a_at) / Fold change /veh VCAN (11748164_a_at) / RFU JSRP1 (11732532_at) / Fold change /veh JSRP1 (11732532_at) / RFU KRTAP10-11 (11738290_x_at) / Fold change /veh KRTAP10-11 (11738290_x_at) / RFU MYO3A (11730013_a_at) / Fold change /veh MYO3A (11730013_a_at) / RFU EBF3 (11725865_a_at) / Fold change /veh EBF3 (11725865_a_at) / RFU CAMK2N1 (11719241_x_at) / Fold change /veh CAMK2N1 (11719241_x_at) / RFU C5orf56 (11738088_a_at) / Fold change /veh C5orf56 (11738088_a_at) / RFU OLFML3 (11715873_a_at) / Fold change /veh OLFML3 (11715873_a_at) / RFU LOC100653217 /// NTM (11731650_a_at) / Fold change /veh LOC100653217 /// NTM (11731650_a_at) / RFU MAPK11 (11762145_a_at) / Fold change /veh MAPK11 (11762145_a_at) / RFU FIZ1 (11724087_x_at) / Fold change /veh FIZ1 (11724087_x_at) / RFU OASL (11726364_x_at) / Fold change /veh OASL (11726364_x_at) / RFU SOX15 (11748057_x_at) / Fold change /veh SOX15 (11748057_x_at) / RFU CD79A (11719716_a_at) / Fold change /veh CD79A (11719716_a_at) / RFU HIST1H1D (11736915_at) / Fold change /veh HIST1H1D (11736915_at) / RFU CASKIN2 (11723855_a_at) / Fold change /veh CASKIN2 (11723855_a_at) / RFU LOC730098 (11760151_x_at) / Fold change /veh LOC730098 (11760151_x_at) / RFU OR4N2 (11742367_at) / Fold change /veh OR4N2 (11742367_at) / RFU PRRT2 (11749266_a_at) / Fold change /veh PRRT2 (11749266_a_at) / RFU SNX32 (11753110_a_at) / Fold change /veh SNX32 (11753110_a_at) / RFU CDHR5 (11726645_a_at) / Fold change /veh CDHR5 (11726645_a_at) / RFU RCAN1 (11760418_a_at) / Fold change /veh RCAN1 (11760418_a_at) / RFU FAM167A (11723789_a_at) / Fold change /veh FAM167A (11723789_a_at) / RFU FAM26E (11764081_at) / Fold change /veh FAM26E (11764081_at) / RFU ISYNA1 (11749810_s_at) / Fold change /veh ISYNA1 (11749810_s_at) / RFU ACY1 (11761880_at) / Fold change /veh ACY1 (11761880_at) / RFU 11764098_at / Fold change /veh 11764098_at / RFU SAMD14 (11745864_x_at) / Fold change /veh SAMD14 (11745864_x_at) / RFU NPB (11741838_a_at) / Fold change /veh NPB (11741838_a_at) / RFU TMPRSS6 (11731388_a_at) / Fold change /veh TMPRSS6 (11731388_a_at) / RFU KRTAP10-2 (11738614_at) / Fold change /veh KRTAP10-2 (11738614_at) / RFU ARHGAP8 /// PRR5-ARHGAP8 (11727945_x_at) / Fold change /veh ARHGAP8 /// PRR5-ARHGAP8 (11727945_x_at) / RFU KRTAP5-7 /// NADSYN1 (11734609_at) / Fold change /veh KRTAP5-7 /// NADSYN1 (11734609_at) / RFU RASL12 (11751679_a_at) / Fold change /veh RASL12 (11751679_a_at) / RFU CDKN2B (11736163_a_at) / Fold change /veh CDKN2B (11736163_a_at) / RFU PRF1 (11729649_at) / Fold change /veh PRF1 (11729649_at) / RFU, ZNF638 /// ZNF638-IT1 / Fold change vs veh, ZNF638 /// ZNF638-IT1 / RFU, PANK3 / Fold change vs veh, PANK3 / RFU, SH3YL1 / Fold change vs veh, SH3YL1 / RFU, ZEB2 / Fold change vs veh, ZEB2 / RFU, NRIP1 / Fold change vs veh, NRIP1 / RFU, PTTG1IP / Fold change vs veh, PTTG1IP / RFU, CAPN2 / Fold change vs veh, CAPN2 / RFU, MED14 / Fold change vs veh, MED14 / RFU, SNORA58 / Fold change vs veh, SNORA58 / RFU, C1orf63 / Fold change vs veh, C1orf63 / RFU, LRRFIP1 / Fold change vs veh, LRRFIP1 / RFU, NDUFAF7 / Fold change vs veh, NDUFAF7 / RFU, SLC12A2 / Fold change vs veh, SLC12A2 / RFU, IBTK / Fold change vs veh, IBTK / RFU, ESF1 / Fold change vs veh, ESF1 / Fold change vs veh, TMEM50B / RFU, TAOK1 / Fold change vs veh, TAOK1 / RFU, ACBD3 / Fold change vs veh, ACBD3 / RFU, TMA16 / Fold change vs veh, TMA16 / RFU, RWDD3 / Fold change vs veh, RWDD3 / RFU, BCAT1 / Fold change vs veh, BCAT1 / RFU, EDEM3 / Fold change vs veh, EDEM3 / RFU, TMEM33 / Fold change vs veh, TMEM33 / RFU, WDR75 / Fold change vs veh, WDR75 / RFU, AHCTF1 / Fold change vs veh, AHCTF1 / RFU, TFRC / Fold change vs veh, TFRC / RFU, ZDHHC17 / Fold change vs veh, ZDHHC17 / RFU, NOM1 / Fold change vs veh, NOM1 / RFU, ARL8B / Fold change vs veh, ARL8B / RFU, ZBTB11 / Fold change vs veh, ZBTB11 / RFU, TAMM41 / Fold change vs veh, TAMM41 / RFU, KIAA1704 /// LOC100996395 / Fold change vs veh, KIAA1704 /// LOC100996395 / RFU, ING1 / Fold change vs veh, ING1 / RFU, TRMT61B / Fold change vs veh, TRMT61B / RFU, FUBP3 / Fold change vs veh, FUBP3 / RFU, TP53 / Fold change vs veh, TP53 / RFU, TNKS2 / Fold change vs veh, TNKS2 / RFU, ZFP14 / Fold change vs veh, ZFP14 / RFU, ACTR2 / Fold change vs veh, ACTR2 / RFU, PPP3R1 / Fold change vs veh, PPP3R1 / RFU, PIK3R1 / Fold change vs veh, PIK3R1 / RFU, HNRNPA1 / Fold change vs veh, HNRNPA1 / RFU, RNF170 / Fold change vs veh, RNF170 / RFU, ZNF28 / Fold change vs veh, ZNF28 / RFU, RNGTT / Fold change vs veh, RNGTT / RFU, OGT / Fold change vs veh, OGT / RFU, BRD1 / Fold change vs veh, BRD1 / RFU, MARS / Fold change vs veh, MARS / RFU, ZNF655 / Fold change vs veh, ZNF655 / RFU, FAHD1 / Fold change vs veh, FAHD1 / RFU, BDP1 / Fold change vs veh, BDP1 / RFU, LRRCC1 / Fold change vs veh, LRRCC1 / RFU, ARID1A / Fold change vs veh, ARID1A / RFU, ZNF146 / Fold change vs veh, ZNF146 / RFU, ZNF330 / Fold change vs veh, ZNF330 / RFU, GPN3 / Fold change vs veh, GPN3 / RFU, C9orf123 / Fold change vs veh, C9orf123 / RFU, N4BP2L2 / Fold change vs veh, N4BP2L2 / RFU, ARFIP1 / Fold change vs veh, ARFIP1 / RFU, FAM179B / Fold change vs veh, FAM179B / RFU, BCL10 / Fold change vs veh, BCL10 / RFU, UHRF1BP1L / Fold change vs veh, UHRF1BP1L / RFU, BET1 / Fold change vs veh, BET1 / RFU, CNOT2 / Fold change vs veh, CNOT2 / RFU, ZNF268 / Fold change vs veh, ZNF268 / Fold change vs veh, ZNF507 / RFU, DGCR2 / Fold change vs veh, DGCR2 / RFU, WDSUB1 / Fold change vs veh, WDSUB1 / Fold change vs veh, HSP90B1 /// MIR3652 / RFU, ADSS / Fold change vs veh, ADSS / RFU, GK / Fold change vs veh, GK / RFU, ZNF148 / Fold change vs veh, ZNF148 / RFU, TAF9 / Fold change vs veh, TAF9 / RFU, SLC1A5 / Fold change vs veh, SLC1A5 / RFU, SLMO2 / Fold change vs veh, SLMO2 / RFU, ABCC4 / Fold change vs veh, ABCC4 / RFU, LOC101060439 /// RAP1B / Fold change vs veh, LOC101060439 /// RAP1B / RFU, RFX7 / Fold change vs veh, RFX7 / RFU, GTPBP10 / Fold change vs veh, GTPBP10 / RFU, CNEP1R1 / Fold change vs veh, CNEP1R1 / RFU, BIVM-ERCC5 /// ERCC5 / Fold change vs veh, BIVM-ERCC5 /// ERCC5 / RFU, ILF3 / Fold change vs veh, ILF3 / RFU 11762660_at / Fold change /veh 11762660_at / RFU VCAN (11757783_s_at) / Fold change /veh VCAN (11757783_s_at) / RFU DDX43 (11728927_at) / Fold change /veh DDX43 (11728927_at) / RFU KRT8 (11758188_x_at) / Fold change /veh KRT8 (11758188_x_at) / RFU NKD1 (11759106_at) / Fold change /veh NKD1 (11759106_at) / RFU SRD5A1 (11742802_a_at) / Fold change /veh SRD5A1 (11742802_a_at) / RFU TPSAB1 /// TPSB2 (11721975_s_at) / Fold change /veh TPSAB1 /// TPSB2 (11721975_s_at) / RFU GSTM3 (11746129_a_at) / Fold change /veh GSTM3 (11746129_a_at) / RFU IL23R (11737362_x_at) / Fold change /veh IL23R (11737362_x_at) / RFU TMEM51 (11727254_a_at) / Fold change /veh TMEM51 (11727254_a_at) / RFU PIWIL2 (11732686_x_at) / Fold change /veh PIWIL2 (11732686_x_at) / RFU ORM1 (11744905_x_at) / Fold change /veh ORM1 (11744905_x_at) / RFU CCDC152 (11743942_at) / Fold change /veh CCDC152 (11743942_at) / RFU ECM1 (11717891_a_at) / Fold change /veh ECM1 (11717891_a_at) / RFU IL23R (11748794_a_at) / Fold change /veh IL23R (11748794_a_at) / RFU TNFAIP8L3 (11732012_x_at) / Fold change /veh TNFAIP8L3 (11732012_x_at) / RFU MBOAT4 (11741988_at) / Fold change /veh MBOAT4 (11741988_at) / RFU 11764193_at / Fold change /veh 11764193_at / RFU TMEM53 (11763286_at) / Fold change /veh TMEM53 (11763286_at) / RFU MAGEB2 (11727129_at) / Fold change /veh MAGEB2 (11727129_at) / RFU TMEM200A (11744735_a_at) / Fold change /veh TMEM200A (11744735_a_at) / RFU CCDC152 (11751479_a_at) / Fold change /veh CCDC152 (11751479_a_at) / RFU FAM211A (11726209_a_at) / Fold change /veh FAM211A (11726209_a_at) / RFU RGS16 (11746705_a_at) / Fold change /veh RGS16 (11746705_a_at) / RFU VCAN (11755009_s_at) / Fold change /veh VCAN (11755009_s_at) / RFU RHOB (11743442_s_at) / Fold change /veh RHOB (11743442_s_at) / RFU RGS16 (11720943_a_at) / Fold change /veh RGS16 (11720943_a_at) / RFU RGS16 (11720944_at) / Fold change /veh RGS16 (11720944_at) / RFU, VPS4B / Fold change vs veh, VPS4B / RFU, CREB1 / Fold change vs veh, CREB1 / RFU, DNAJC13 / Fold change vs veh, DNAJC13 / RFU, GNAQ / Fold change vs veh, GNAQ / RFU, CDK5R1 / Fold change vs veh, CDK5R1 / RFU, ZRANB3 / Fold change vs veh, ZRANB3 / RFU, CUL4A / Fold change vs veh, CUL4A / RFU, CCNY / Fold change vs veh, CCNY / RFU, UFL1 / Fold change vs veh, UFL1 / RFU, COG3 / Fold change vs veh, COG3 / RFU, DIAPH2 / Fold change vs veh, DIAPH2 / RFU, SKA2 / Fold change vs veh, SKA2 / RFU, AFF3 / Fold change vs veh, AFF3 / RFU, LMF1 / Fold change vs veh, LMF1 / RFU, IPO11 / Fold change vs veh, IPO11 / RFU, DFFB / Fold change vs veh, DFFB / RFU, FOXP1 / Fold change vs veh, FOXP1 / RFU, CARD8 / Fold change vs veh, CARD8 / RFU, STRN3 / Fold change vs veh, STRN3 / RFU, ADK / Fold change vs veh, ADK / RFU, RASSF2 / Fold change vs veh, RASSF2 / RFU, WIPF1 / Fold change vs veh, WIPF1 / RFU, LARP1B / Fold change vs veh, LARP1B / RFU, RASA1 / Fold change vs veh, RASA1 / RFU, RB1 / Fold change vs veh, RB1 / RFU, PPFIA1 / Fold change vs veh, PPFIA1 / RFU, MAT2A / Fold change vs veh, MAT2A / RFU, CCT5 / Fold change vs veh, CCT5 / RFU, WDR92 / Fold change vs veh, WDR92 / RFU, CUX1 / Fold change vs veh, CUX1 / RFU, TTC7A / Fold change vs veh, TTC7A / RFU, TMEM135 / Fold change vs veh, TMEM135 / RFU, DEPTOR / Fold change vs veh, DEPTOR / RFU, CPM / Fold change vs veh, CPM / RFU, DNAJB6 / Fold change vs veh, DNAJB6 / RFU, CACNA2D3 / Fold change vs veh, CACNA2D3 / RFU, DTX4 / Fold change vs veh, DTX4 / RFU, TFCP2 / Fold change vs veh, TFCP2 / RFU, GMCL1 /// GMCL1P1 / Fold change vs veh, GMCL1 /// GMCL1P1 / RFU, AEBP2 / Fold change vs veh, AEBP2 / RFU, SNHG1 /// SNORD22 /// SNORD25 /// SNORD26 /// SNORD27 /// SNORD28 /// SNORD29 /// SNORD31 / Fold change vs veh, SNHG1 /// SNORD22 /// SNORD25 /// SNORD26 /// SNORD27 /// SNORD28 /// SNORD29 /// SNORD31 / Fold change (Aza/veh), C12orf56 (ProbeSet 11735607_a_at) / Fold change (ACY-1035/veh), C12orf56 (ProbeSet 11735607_a_at) / Fold change (Aza/veh), FGFR1OP (ProbeSet 11751329_s_at) / Fold change (ACY-1035/veh), FGFR1OP (ProbeSet 11751329_s_at) / Fold change (Aza/veh), VPS36 (ProbeSet 11739960_a_at) / Fold change (ACY-1035/veh), VPS36 (ProbeSet 11739960_a_at) / RFU SYPL1 (11715823_x_at) / Fold change /veh SYPL1 (11715823_x_at) / RFU IGFBP7 (11715501_s_at) / Fold change /veh IGFBP7 (11715501_s_at) / RFU REEP3 (11722064_at) / Fold change /veh REEP3 (11722064_at) / RFU IGLL1 (11728026_x_at) / Fold change /veh IGLL1 (11728026_x_at): dose or concentration left out as unconfirmed
Conditions: MV-4-11 cells, 48 hours

SMILES: Nc1ncn([C@@H]2O[C@H](CO)[C@@H](O)[C@H]2O)c(=O)n1 [azacitidine]
- Fold change /veh KIR2DL2 /// KIR2DL4 /// KIR2DL5A /// KIR2DL5B /// KIR2DS1 /// KIR2DS2 /// KIR2DS3 /// KIR2DS4 /// KIR3DL3 /// KIR3DL3 /// KIR3DS1 (11738374_at): 0.92
